Measurements: US20240376165A1, “COMPOSITION COMPRISING VGLL1 PEPTIDE FOR TREATMENT OF CANCER” (ONECUREGEN CO., LTD., priority 2020, published 2024)
d = 2'-deoxy (DNA); r = 2'-OH (RNA)

How the values were obtained:
MMP9 promoter = MMP9 promoter luciferase activity after TGF-β treatment; format: cell-based, human; conditions: NUGC3, 20 nM siRNA, TGF-β 18 hours, compared to control (siSC), FIG. 3
Procedure: In order to determine whether VGLL1 and TEAD4 were involved in MMP9 promoter activity in NUGC3 human stomach cancer cell line, the MMP9 promoter luciferase activity was investigated after TGF-β treatment.
Specifically, the stomach cancer cell NUGC3 was cultured in a 48-well plate at a concentration of 2× 10^4 cells/well. The next day, the MMP9 gene-inserted pGL4.17-luciferase vector was transfected into cells using Lipofectamine 2000. After 24 hours, 20 nM siSC (SEQ ID NO: 23: 5′-CCUACGCCACCAAUUUCGUdTdT-3′) siVGLL1 (SEQ ID NO 24: 5′-[…]dTdT-3′), siTEAD4 (SEQ ID NO 25: 5′-GACACUACUCUUACCGCAUdTdT-3′), and siYAP (SEQ ID NO 26: 5′-CCACCA AGCUAGAUAAAGAAAdTdT-3′) were mixed with Lipofectamine 2000, and the cells were treated with the mixture. The next day, the cells were treated with TGF-β for 18 hours. Thereafter, the cells were disrupted using a passive lysis buffer. Then, after centrifuging cells, a supernatant was obtained. […] At this time, the degree of luminescence of the cells was checked using Victor X Light.

MMP9 [1] = assay: MMP9 mRNA expression after TGF-β treatment, RT-PCR; format: cell-based, human; conditions: NUGC3, 20 nM siRNA, TGF-β 18 hours, compared to control (siSC), FIG. 4
Procedure: In order to determine whether VGLL1 and TEAD4 were involved in MMP9 mRNA expression in NUGC3 human stomach cancer cells, MMP9 mRNA expression was examined by RT-PCR after TGF-β treatment.
Specifically, the stomach cancer cell line NUGC3 was cultured in a 6-well plate. The next day, 20 nM siSC, siVGLL1, siTEAD4, and siYAP were mixed with Lipofectamine 2000, and the cell line was treated with the mixture. The next day, after treatment with TGF-β for 18 hours, mRNA was extracted from the cells and complementary DNA was synthesized, followed by RT-PCR.

MMP9 [2] = assay: MMP9 knockdown by siRNA, RT-PCR; format: cell-based, human; conditions: NUGC3, 20 nM siRNA, 48 hours, FIG. 2A
Procedure: Specifically, the stomach cancer cells line NUGC3 was cultured in a 6-well plate overnight, and then treated with the mixture of Lipofectamine 2000 and 20 nM siSC or siMMP9 (SEQ ID NO: 22) and. After 48 hours, mRNA was extracted from the cells and complementary DNA was synthesized, followed by RT-PCR using the MMP9 primer (FIG. 2A).

[3] = tested on: stomach cancer cell line NUGC3; assay: Cell proliferation after siRNA, Sulforhodamine B staining; format: cell-based, human; conditions: NUGC3, 20 nM siRNA, 48 hours, FIG. 2B
Procedure: In addition, in order to confirm the cell proliferation ability of MMP9, the stomach cancer cell line NUGC3 was cultured in a 96-well plate. The next day, cells were treated with the mixture of Lipofectamine 2000 and 20 nM siSC or siMMP9. After 48 hours, cells were fixed using 1% formalin solution. Thereafter, the cells were stained with 0.4% Sulforhodamine B solution for 1 hour, washed with acetic acid, and dried. Then, the cells were dissolved in a 10 mM Tris solution, and absorbance was measured at 540 nm using an ELISA plate reader (FIG. 2B).

[4] = tested on: stomach cancer cell line NUGC3; assay: Matrigel cell invasion after siRNA; format: cell-based, human; conditions: NUGC3, siRNA knockdown cells, Matrigel insert, 48 hours, FIG. 2C
Procedure: (§1) Next, in order to confirm the cell invasive ability of MMP9, a cell culture insert was fixed in a 24-well plate. Matrigel was diluted 20-fold, and 100 μl of diluent was added. The reaction was carried out at 37° C. for 1 hour or longer. 700 μl of medium containing 10% serum was added to a 24-well plate under the insert. MMP knockdown cells with the above siRNA were added to the insert according to 300 μl of serum-free medium to a concentration of 5×10^5. After 48 hours, the insert was removed and cells were fixed in 10% formalin solution. Cells remaining inside the insert were removed with a cotton swab and washed with water. Cells were stained with 0.4% Sulforhodamine B solution for 1 hour, washed with acetic acid, and dried. Then, a photograph was taken with an optical microscope, the membrane on the insert was cut, and Sulforhodamine B in stained cells was dissolved in 10 mM Tris solution, and absorbance was measured at 540 nm using an ELISA plate reader (FIG. 2C).

MMP9 [5] = assay: MMP9 expression by TGF-β treatment, RT-PCR; format: cell-based, human; conditions: NUGC3, RT-PCR, after 6 hours of TGF-β treatment, FIG. 1
Procedure: In order to confirm the expression change of MMP9 according to TGF-β treatment in stomach cancer cell lines, the human stomach cancer cell line NUGC3 was treated with TGF-β at each time period, then mRNA was extracted from the cells, and complementary DNA was synthesized. Then RT-PCR was performed using Matrix metalloproteinase 9 (MMP9) primers (Table 4).

[6] = tested on: stomach cancer cell line NUGC3; assay: Cancer cell proliferation, real-time cell analysis (IncuCyte Zoom); format: cell-based, human; conditions: FIG. 9
Procedure: Specifically, the stomach cancer cell line NUGC3 was cultured in a 96-well plate. The next day, the cells were treated with the peptide fragment. The cell proliferation was analyzed using a real-time cell analysis system (product name: IncuCyte Zoom).

[7] = tested on: stomach cancer cell line NUGC3; assay: Cancer cell proliferation with peptide variants, real-time cell analysis (Incucyte); format: cell-based, human; conditions: NUGC3, 60 μM peptide, FIG. 11
Procedure: The stomach cancer cell line NUGC3 was cultured in a 96-well plate, and the next day, the cells were treated with 60 μM peptide. The cell proliferation was analyzed using a real-time cell analysis system (product name: Incucyte).
FIG. 11A is a graph of real-time cell proliferation, and FIG. 11B is a graph showing cell proliferation after 4 days based on 100% control peptide.

MMP9 [8] = assay: MMP9 protein expression induced by TGF-β, western blot, peptide treatment; format: cell-based, human; conditions: NUGC3, TGF-β and peptide for 18 hours, FIG. 8
Procedure: To evaluate whether the peptide fragment that interferes the binding between VGLL1 and TEAD4 can inhibit MMP9 expression in human stomach cancer cells, peptides shown in Table 6 were prepared to examine their effects on MMP9 expression.
Experiments were performed using the synthetic peptide fragments. The stomach cancer NUGC3 cells were cultured in a 6-well plate. The next day, cells were cultured in serum-free cell culture for 24 hours. TGF-β and a control peptide fragment (SEQ ID NO: 12), a peptide fragment containing serine at position 84 of VGLL1 (SEQ ID NO: 27), and a mutant peptide fragment containing alanine at position 84 of VGLL1 (SEQ ID NO: 28) were treated into cells for 18 hours. Proteins were extracted from the cells using a Ripa buffer and were separated by electrophoresis. Thereafter, protein expression of genes was confirmed by using an antibody on the polyvinylidene fluoride membrane.

[9] = tested on: stomach cancer cell line NUGC3; assay: Cancer cell invasion with peptide fragment; format: cell-based, human; conditions: NUGC3, insert, 48 hours, FIG. 10
Procedure: as §1
A method similar to Example 1-2 was performed for stomach cancer cell invasion experiment by the VGLL1 peptide fragment.
The stomach cancer cell line NUGC3 was placed in an insert together with the peptide fragment. After 48 hours of cell culture, the insert was fixed in a 10% formalin solution, and the downwardly migrated cells were confirmed by staining with 0.4% Sulforhodamine B solution.

stomach cancer cells = assay: Proliferation of various cancer cells: stomach cancer; format: cell-based; conditions: 60 μM peptide; NUGC3, AG5, NCI-N87, SNU484, MKN1; FIG. 12
Procedure: (§2) In order to confirm the various cancer cell proliferation inhibitory effects of the variant of S84 VGLL1 peptide fragment, the VGLL1 S84 peptide sequence represented by SEQ ID NO: 27 was treated into various cancer cell lines.
(§3) Specifically, the cancer cells of Table 8 were cultured in a 96-well plate and treated with 60 μM peptide on the next day, and cell proliferation was analyzed using a real-time cell analysis system (product name: IncuCyte Zoom).

colorectal cancer cells = assay: Proliferation of various cancer cells: colorectal cancer; format: cell-based; conditions: 60 μM peptide; SW620, HCT116, WiDr; FIG. 12
Procedure: as §2, §3

lung cancer cells = assay: Proliferation of various cancer cells: lung cancer; format: cell-based; conditions: 60 μM peptide; A549, H1650, H1299; FIG. 12
Procedure: as §2, §3

liver cancer cells = assay: Proliferation of various cancer cells: liver cancer; format: cell-based; conditions: 60 μM peptide; HepG2, SNU354; FIG. 12
Procedure: as §2, §3

prostate cancer cells = assay: Proliferation of various cancer cells: prostate cancer; format: cell-based; conditions: 60 μM peptide; FIG. 12
Procedure: as §2, §3

breast cancer cells = assay: Proliferation of various cancer cells: breast cancer; format: cell-based; conditions: 60 μM peptide; MCF7, SKBR3; FIG. 12
Procedure: as §2, §3

cervical cancer cells = assay: Proliferation of various cancer cells: cervical cancer; format: cell-based; conditions: 60 μM peptide; Hela; FIG. 12
Procedure: as §2, §3

ovarian cancer cells = assay: Proliferation of various cancer cells: ovarian cancer; format: cell-based; conditions: 60 μM peptide; SK-OV3; FIG. 12
Procedure: as §2, §3

[10] = target: T1, GFP-TEAD4, expressed from the GFP-TEAD4 vector (UniProt Q15561 1-434); assay: co-immunoprecipitation with HA antibody agarose, western blot with GFP antibody
T1 construct: Detected with GFP antibody in the HA immunoprecipitate; also called transcription factor TEAD4; not shown: GFP tag
T1 sequence (Q15561 whole entry): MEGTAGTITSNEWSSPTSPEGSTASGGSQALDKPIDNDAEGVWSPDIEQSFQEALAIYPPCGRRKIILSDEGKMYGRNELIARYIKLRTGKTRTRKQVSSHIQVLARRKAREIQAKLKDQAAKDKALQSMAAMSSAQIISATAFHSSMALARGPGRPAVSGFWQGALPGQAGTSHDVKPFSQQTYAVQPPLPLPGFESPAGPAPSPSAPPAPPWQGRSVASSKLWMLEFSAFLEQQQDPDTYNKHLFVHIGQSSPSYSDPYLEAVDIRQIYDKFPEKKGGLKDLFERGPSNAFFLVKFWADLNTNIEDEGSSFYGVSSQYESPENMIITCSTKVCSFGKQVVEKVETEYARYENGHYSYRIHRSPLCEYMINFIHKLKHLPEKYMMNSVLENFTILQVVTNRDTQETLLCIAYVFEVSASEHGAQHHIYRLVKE
Procedure: Specifically, the GFP-TEAD4 vector and pcDNA3-HA (EV), pcDNA3-HA-VGLL1 (WT), pcDNA3-HA-VGLL1-S50A (S50A mutation), pcDNA3-HA-VGLL1-S84A (S84A mutation), and pcDNA3-HA-VGLL1-S124A (S124A mutation) were mixed with Turbofect. The mixture was transformed to the cell lines cultured for 24 hours. After 48 hours, the protein was extracted from the cells using a Ripa buffer. The extracted protein was subjected to immunoprecipitation using agarose bound with HA antibody and separated by electrophoresis. Thereafter, western blot analysis was performed using an antibody on the polyvinylidene fluoride membrane.

Molecule: 5′-AGCCUAUAAAGACGGAAUGGAAUdTdT-3′ (sense AGCCUAUAAAGACGGAAUGGAAUTT; sugars from the 5' end r23 d2, backbone not given here) [siVGLL1, siRNA against VGLL1]
- MMP9 promoter activity increased by TGF-β (MMP9 promoter): decreased
- MMP9 mRNA expression increased by TGF-β (MMP9 [1]): decreased

Molecule: 5′-CCACAACAUCACCUAUUGGAUdTdT-3′ [siMMP9]
- expression of MMP9 (MMP9 [2]): reduced expression of MMP9
- cell viability [3]: greatly reduced cell viability
- cell invasiveness [4]: greatly reduced cell invasiveness

Molecule: 5′-GACACUACUCUUACCGCAUdTdT-3′ [siTEAD4]
- MMP9 promoter activity increased by TGF-β (MMP9 promoter): decreased
- MMP9 mRNA expression increased by TGF-β (MMP9 [1]): decreased

Molecule: Transforming growth factor-β [TGF-β]
- expression of MMP9 (MMP9 [5]): increased

Molecule: YGRKKRRQRRR (HIV-1 Tat) [Control peptide]
- inhibition of cancer cell proliferation [6]: did not have any effect

Molecule: YGRKKRRQRRR-PNQWRYSSAWTKPQP (YGRKKRRQRRRPNQWRYSSAWTKPQP; HIV TAT sequence linked; Tat-VGLL1(P85A)) [VGLL1 P85A]
- inhibition of cancer cell proliferation [7]: excellent effect in inhibiting cancer cell proliferation

Molecule: YGRKKRRQRRR-PNQWRYSSPWAKPQP (YGRKKRRQRRRPNQWRYSSPWAKPQP; HIV TAT sequence linked; Tat-VGLL1(T87A)) [VGLL1 T87A]
- inhibition of cancer cell proliferation [7]: excellent effect in inhibiting cancer cell proliferation

Molecule: YGRKKRRQRRR-YSSPWTK (YGRKKRRQRRRYSSPWTK; HIV TAT sequence linked; Tat-VGLL1(S84-S)) [VGLL1 S84-S]
- inhibition of cancer cell proliferation [7]: excellent effect in inhibiting cancer cell proliferation

Molecule: YGRKKRRQRRRPNQWRYSAPWTKPQP (HIV TAT domain linked; Tat-VGLL1(S84A)) [VGLL1 (S84A), reference compound]
- increased MMP9 expression by TGF-β (MMP9 [8]): not affected
- inhibition of cancer cell proliferation [6]: did not have any effect
- inhibition of cancer cell invasion [9]: did not exhibit such an effect

Molecule: YGRKKRRQRRRPNQWRYSSPWTKPQP [VGLL1 (S84)]
- increased MMP9 expression by TGF-β (MMP9 [8]): reduced
- inhibition of cancer cell proliferation [6]: exhibited an effect of inhibiting cancer cell proliferation
- inhibition of cancer cell invasion [9]: exhibited an effect of inhibiting cancer cell invasion
- inhibition of cancer cell proliferation [7]: excellent effect in inhibiting cancer cell proliferation
- inhibition of proliferation of stomach cancer cells (stomach cancer cells): excellent effect in inhibiting the proliferation
- inhibition of proliferation of colorectal cancer cells (colorectal cancer cells): excellent effect in inhibiting the proliferation
- inhibition of proliferation of lung cancer cells (lung cancer cells): excellent effect in inhibiting the proliferation
- inhibition of proliferation of liver cancer cells (liver cancer cells): excellent effect in inhibiting the proliferation
- inhibition of proliferation of prostate cancer cells (prostate cancer cells): excellent effect in inhibiting the proliferation
- inhibition of proliferation of breast cancer cells (breast cancer cells): excellent effect in inhibiting the proliferation
- inhibition of proliferation of cervical cancer cells (cervical cancer cells): excellent effect in inhibiting the proliferation
- inhibition of proliferation of ovarian cancer cells (ovarian cancer cells): excellent effect in inhibiting the proliferation

B1: HA-VGLL1-S84A, expressed from pcDNA3-HA-VGLL1-S84A (other)
chain: MEEMKKTAIRLPKGKQKPIKTEWNSRCVLFTYFQGDISSVVDEHFSRALSNIKSPQELTPSSQSEGVMLKNDDSMSPNQWRYSAPWTKPQPEVPVTNRAANCNLHVPGPMAVNQFSPSLARRASVRPGELWHFSSLAGTSSLEPGYSHPFPARHLVPEPQPDGKREPLLSLLQQDRCLARPQESAARENGNPGQIAGSTGLLFNLPPGSVHYKKLYVSRGSASTSLPNETLSELETPGKYSLTPPNHWGHPHRYLQHL
notes: Serine 84 of VGLL1 replaced with alanine by site-directed mutagenesis in the pcDNA3-HA-VGLL1 vector; also called S84A mutation; not shown: HA tag from the pcDNA3-HA vector
- binding result [10]: no binding
